Results taken from patent US20090240070A1, “WHITENING DERMATOLOGICAL PREPARATIONS” (SHOWA DENKO K.K., priority 2006, published 2009).

Assays:
[1] = test system: culture skin model (MEL-300) containing melanin cells; conditions: for Amount of melanin synthesized (% relative to the control): 0.5% by mass test article solution, 0.1 ml, 11 days of incubation, control = 100%; for inhibition of melanin synthesis compared with tranexamic acid (in words): conclusion from Table 4
Protocol: The above test articles, each 0.5% by mass, were dissolved separately in sterilized water containing 10% bovine serum albumin and 1% DMSO to give test article solutions.
The skin model was cultured for 11 days using the supplied culture medium LLMM. Each article was tested two times. The culture medium was changed every other day during the incubation.
After 11 days of incubation, the skin model was washed and was measured for the cell survival rate by colorimetry (570 nm) with the Alamar Blue reagent (manufactured by Molecular Probe). Thereafter, the melanin synthesized in the skin model was determined in the following manner.
The skin model was soaked overnight in a liquid which consisted of 0.2 ml of a 10 mM tris buffer solution (pH 6.8) containing 1% SDS and 0.05 mM EDTA, and 0.02 ml of 5 mg/ml Proteinase K. On the next day, 0.02 ml of 5 mg/ml Proteinase K was added, followed by heating at 45° C. for 4 hours. Consequently, the skin model was dissolved. The lysate was made alkaline with 0.025 ml of a 500 mM sodium carbonate solution, and was combined with 5 μl of 30% hydrogen peroxide, followed by heating at 80° C. for 30 minutes to perform reaction. To prepare a standard sample solution, 0.24 ml of a melanin solution of known concentration was combined with 0.025 ml of a 500 mM sodium carbonate solution and 5 μl of 30% hydrogen peroxide, followed by heating at 80° C. for 30 minutes to perform reaction.
The standard sample solution and the lysate obtained were each cooled and extracted with 0.1 ml of chloroform/methanol (2/1). The aqueous phase was measured for the absorbance at 405 nm, and the melanin synthesized was determined using a calibration curve obtained with the standard sample.

[2] = 0.5% by mass solution, 0.1 ml on minipig skin, 24 hours, 37° C.; HPLC
Protocol: The above test articles, each 0.5% by mass, were dissolved separately in Dulbecco's PBS (−) containing 10% bovine serum albumin to give test article solutions.
2-cm square skin pieces of minipig (Charles River Laboratories Inc. (United States of America)) were placed in the Netwell (manufactured by Corning Incorporated), and assay rings (Teflon® rings with a center opening) on which a silicon sealant had been applied were pressed and fixed to the epidermis of the skin. Subsequently, 2 ml of a skin culture medium (TOYOBO CO., LTD.) was added to a multiwell plate, and the Netwell was set such that skin lower portions would be soaked. Each of the test article solutions, 0.1 ml, was slowly poured into the opening of assay ring. When no leakage was confirmed, the Netwell was sealed with multiplate seals and were allowed to stand in an incubator at 37° C. and 5% carbon dioxide. […]
The test articles in the tissue extracts were determined by HPLC.
The protein in the tissue extracts was determined by the Lowry method.
400 μl of the reagent 4 was added to a sample tube containing 20 μl of the tissue extract or the standard sample solution, followed by mixing. […] The absorbance at 750 nm was measured with a spectrophotometer, and the protein concentration in the tissue extract was determined using a calibration curve obtained with the standard sample.

SMILES	Amount of melanin synthesized (% relative to the control) [1] [%]	inhibition of melanin synthesis compared with tranexamic acid (in words) [1]	Determined value, amount of test article in skin tissue extract [2] [μmol/mg skin protein]
Cc1c(C)c2c(c(C)c1OC(=O)[C@H]1CC[C@H](CN)CC1)CCC(C)(CCCC(C)CCCC(C)CCCC(C)C)O2.Cl (mixture of isomers) [b, dl-α-Tocopherol tranexamate hydrochloride]	60	inhibit the melanin synthesis more effectively than tranexamic acid	–
Cc1c(OC(=O)[C@H]2CC[C@H](CN)CC2)cc2c(c1C)OC(C)(CCCC(C)CCCC(C)CCCC(C)C)CC2.Cl (mixture of isomers) [c, dl-γ-Tocopherol tranexamate hydrochloride]	44	inhibit the melanin synthesis more effectively than tranexamic acid	–
NC[C@H]1CC[C@H](C(=O)O)CC1 [a, Tranexamic acid, reference compound]	99	–	0.034
